From patent US20030007948A1, “Adhesive treatment for skin yeast infections” (CLOSURE MEDICAL CORPORATION, priority 2001, published 2003)

Assay: Observation of haloprogin / 2-octyl cyanoacrylate monomer composition after preparation
Assay type: physicochemical
Conditions: 30 mg haloprogin in 2 mL 2-octyl cyanoacrylate monomer
Method: A 2-octyl cyanoacrylate monomer composition is prepared by adding 30 mg of haloprogin, an anti-fungal agent, to 2 mL of 2-octyl cyanoacrylate monomer. The mixture is sealed in a glass vial and stirred. The characteristics of the composition are observed at about one minute after preparation and later at least twenty-four hours after preparation.

- premature polymerization of the monomer (sealed glass vial, about one minute and at least twenty-four hours after preparation): does not cause premature polymerization
- solubility in the monomer (observed at about one minute and at least twenty-four hours after preparation): soluble
Compound: Clc1cc(Cl)c(OCC#CI)cc1Cl [haloprogin]
